The text below walks through data of PubChem BioAssay (NCI).

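Tested at 5 concentrations; 48 h exposure; 96-well plates; endpoints linearly interpolated, else capped at highest concentration. The concentration for full growth arrest is given as TGI.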

The first assay concerns 786-0 renal. The assay is described as follows: DTP human tumour cell line panel, 48 h.
Turning to `C#CCOCC12C=CC(O1)C1COC(=O)C12` (stereo not given), the TGI (as a rule, the concentration at which net growth stops) is more than 100 µM.
Molecule `CN(C)CCCNc1cc(O)c2c(c1O)C(=O)c1ccccc1C2=O` gave a TGI of 21 µM.
Same read-out and setting: with `C[n+]1c(-c2ccc(NC(=O)c3ccc(C(=O)Nc4ccc(-c5cn6ccccc6[n+]5C)cc4)cc3)cc2)cn2ccccc21` the figure was more than 100 µM; with `COc1ccc(OC/C(N=Cc2ccncc2)=N/NC(=O)c2ccncc2)cc1`, more than 100 µM.

A further assay concerns BT-549 breast. Kind of assay: DTP human tumour cell line panel, 48 h.
`C#CCOCC12C=CC(O1)C1COC(=O)C12` (stereo not given) returned a TGI of more than 100 µM.
In the case of `CN(C)CCCNc1cc(O)c2c(c1O)C(=O)c1ccccc1C2=O`, the TGI was determined as 34.2 µM.
On the same count and under the same terms, the figure for `C[n+]1c(-c2ccc(NC(=O)c3ccc(C(=O)Nc4ccc(-c5cn6ccccc6[n+]5C)cc4)cc3)cc2)cn2ccccc21` is more than 100 µM; for `COc1ccc(OC/C(N=Cc2ccncc2)=N/NC(=O)c2ccncc2)cc1` it is more than 100 µM.

For another assay, the system named is EKVX NSCLC. Kind of assay: DTP human tumour cell line panel, 48 h.
Take `C#CCOCC12C=CC(O1)C1COC(=O)C12` (stereo not given): the concentration for total growth inhibition (TGI) is more than 100 µM.
On the same count and under the same terms, the figure for `CN(C)CCCNc1cc(O)c2c(c1O)C(=O)c1ccccc1C2=O` is 31.1 µM; for `C[n+]1c(-c2ccc(NC(=O)c3ccc(C(=O)Nc4ccc(-c5cn6ccccc6[n+]5C)cc4)cc3)cc2)cn2ccccc21` it is more than 100 µM.
Still for that read-out and setting: with `COc1ccc(OC/C(N=Cc2ccncc2)=N/NC(=O)c2ccncc2)cc1` the figure was more than 100 µM.

The test system of another assay is KM12 colon. Kind of assay: DTP human tumour cell line panel, 48 h.
The molecule `C#CCOCC12C=CC(O1)C1COC(=O)C12` (stereo not given) came in with a total growth inhibition concentration (TGI) of more than 100 µM.
Same read-out and setting: with `CN(C)CCCNc1cc(O)c2c(c1O)C(=O)c1ccccc1C2=O` the figure was 21.7 µM; with `C[n+]1c(-c2ccc(NC(=O)c3ccc(C(=O)Nc4ccc(-c5cn6ccccc6[n+]5C)cc4)cc3)cc2)cn2ccccc21`, more than 100 µM; with `COc1ccc(OC/C(N=Cc2ccncc2)=N/NC(=O)c2ccncc2)cc1`, more than 100 µM.

The next assay relates to M14 melanoma. The assay is described as follows: DTP human tumour cell line panel, 48 h.
On to `C#CCOCC12C=CC(O1)C1COC(=O)C12` (stereo not given), for which the concentration for total growth inhibition (TGI) is more than 100 µM.
Same read-out and setting: with `CN(C)CCCNc1cc(O)c2c(c1O)C(=O)c1ccccc1C2=O` the figure was 19.5 µM; with `C[n+]1c(-c2ccc(NC(=O)c3ccc(C(=O)Nc4ccc(-c5cn6ccccc6[n+]5C)cc4)cc3)cc2)cn2ccccc21`, more than 100 µM; with `COc1ccc(OC/C(N=Cc2ccncc2)=N/NC(=O)c2ccncc2)cc1`, more than 100 µM.

The subject of another assay is MALME-3M melanoma. The assay is described as follows: DTP human tumour cell line panel, 48 h.
Molecule `C#CCOCC12C=CC(O1)C1COC(=O)C12` (stereo not given) displayed a total growth inhibition concentration (TGI) of more than 100 µM.
On the same count and under the same terms, with `CN(C)CCCNc1cc(O)c2c(c1O)C(=O)c1ccccc1C2=O` the figure was 50.2 µM; with `C[n+]1c(-c2ccc(NC(=O)c3ccc(C(=O)Nc4ccc(-c5cn6ccccc6[n+]5C)cc4)cc3)cc2)cn2ccccc21`, more than 100 µM.
On the same count and under the same terms, with `COc1ccc(OC/C(N=Cc2ccncc2)=N/NC(=O)c2ccncc2)cc1` the figure was more than 100 µM.

Another assay relates to MDA-MB-435. The assay is described as follows: DTP human tumour cell line panel, 48 h.
In turn, `C#CCOCC12C=CC(O1)C1COC(=O)C12` (stereo not given) showed a concentration for total growth inhibition (TGI) of more than 100 µM.
Same read-out and setting: with `CN(C)CCCNc1cc(O)c2c(c1O)C(=O)c1ccccc1C2=O` the figure was 29.2 µM; with `C[n+]1c(-c2ccc(NC(=O)c3ccc(C(=O)Nc4ccc(-c5cn6ccccc6[n+]5C)cc4)cc3)cc2)cn2ccccc21`, more than 100 µM; with `COc1ccc(OC/C(N=Cc2ccncc2)=N/NC(=O)c2ccncc2)cc1`, 62.4 µM.

The next assay has as its system NCI-H226 lung. Kind of assay: DTP human tumour cell line panel, 48 h.
`C#CCOCC12C=CC(O1)C1COC(=O)C12` (stereo not given) came in with a TGI of more than 100 µM.
The same measure, in the same setting: the figure for `CN(C)CCCNc1cc(O)c2c(c1O)C(=O)c1ccccc1C2=O` is 35.2 µM; for `C[n+]1c(-c2ccc(NC(=O)c3ccc(C(=O)Nc4ccc(-c5cn6ccccc6[n+]5C)cc4)cc3)cc2)cn2ccccc21` it is more than 100 µM.
Same read-out and setting: with `COc1ccc(OC/C(N=Cc2ccncc2)=N/NC(=O)c2ccncc2)cc1` the figure was more than 100 µM.

In another assay the test system is NCI/ADR-RES ovarian. The assay is described as follows: DTP human tumour cell line panel, 48 h.
Turning to `C#CCOCC12C=CC(O1)C1COC(=O)C12` (stereo not given), the total growth inhibition concentration (TGI) is more than 100 µM.
Same read-out and setting: the figure for `CN(C)CCCNc1cc(O)c2c(c1O)C(=O)c1ccccc1C2=O` is 15.5 µM; for `C[n+]1c(-c2ccc(NC(=O)c3ccc(C(=O)Nc4ccc(-c5cn6ccccc6[n+]5C)cc4)cc3)cc2)cn2ccccc21` it is more than 100 µM.
Still for that read-out and setting: the figure for `COc1ccc(OC/C(N=Cc2ccncc2)=N/NC(=O)c2ccncc2)cc1` is more than 100 µM.

For a further assay, the system named is SF-539 CNS. The assay is described as follows: DTP human tumour cell line panel, 48 h.
Take `C#CCOCC12C=CC(O1)C1COC(=O)C12` (stereo not given): the total growth inhibition concentration (TGI) is more than 100 µM.
On the same count and under the same terms, the figure for `CN(C)CCCNc1cc(O)c2c(c1O)C(=O)c1ccccc1C2=O` is 26.7 µM; for `C[n+]1c(-c2ccc(NC(=O)c3ccc(C(=O)Nc4ccc(-c5cn6ccccc6[n+]5C)cc4)cc3)cc2)cn2ccccc21` it is more than 100 µM.
Still for that read-out and setting: with `COc1ccc(OC/C(N=Cc2ccncc2)=N/NC(=O)c2ccncc2)cc1` the figure was more than 100 µM.
